# Reference: patent publication US5631257A, “Benzoxazole derivatives” (Meiji Seika Kaisha, Ltd., priority 1993, dated 1997)
# Like-named read-outs stand apart in the source and are kept apart here.
# Legend:
# [1] = biological target: T1, 5-HT3 receptor (Mus musculus, UniProt P23979); assay: 5-HT3 receptor binding affinity (inhibition of [^3 H]-GR65630 binding); conditions: membrane fraction from rat N1E-115 cells
# T1 construct: membrane fraction prepared from rat N1E-115 cells; endogenous in cells; host or cells: N1E-115 cells, membrane fraction
# T1 sequence (P23979 24-483 isoform P23979-2 limits assumed): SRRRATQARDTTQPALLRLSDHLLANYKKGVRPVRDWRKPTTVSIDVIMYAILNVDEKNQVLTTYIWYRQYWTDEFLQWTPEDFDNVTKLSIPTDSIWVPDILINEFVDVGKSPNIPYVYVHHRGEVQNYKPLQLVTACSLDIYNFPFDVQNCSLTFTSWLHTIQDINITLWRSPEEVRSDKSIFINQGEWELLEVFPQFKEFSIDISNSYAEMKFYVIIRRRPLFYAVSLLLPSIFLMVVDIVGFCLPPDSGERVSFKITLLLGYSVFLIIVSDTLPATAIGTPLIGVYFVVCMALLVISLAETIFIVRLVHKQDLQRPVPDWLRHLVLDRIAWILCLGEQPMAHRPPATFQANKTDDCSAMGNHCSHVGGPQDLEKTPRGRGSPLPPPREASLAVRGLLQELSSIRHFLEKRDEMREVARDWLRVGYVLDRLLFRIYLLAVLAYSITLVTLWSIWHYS
# Text: Using a membrane fraction prepared from rat N1E-115 cells in accordance with the procedure of Lummis et al. (European Journal of Pharmacology, 189, 223-227, 1990), effects of the inventive compounds to inhibit binding of [^3 H]-GR65630 which was radioligand 5-HT3 antagonist to 5-HT3 receptor were examined, with the results shown in Table 1.
# [2] = system: 5-HT3 receptor; assay: 5-HT3 receptor antagonism (inhibition of 5-HT-induced bradycardia in anesthetized mice); type: in vivo; conditions: 30 minutes before 5-HT 0.25 mg/kg i.v.
# Experimental: In accordance with the procedure of Saxena et al. (Arch. Int. Pharmacodyn.,277, 235-252, 1985), each compound was dissolved in distilled water for injection to give different concentration and was administered intraperitoneally to mice which had been anesthetized with pentobarbital (3 animals per group), and ratio of inhibition of bradycardia induced by 5-HT administration (0.25 mg/kg, i.v.) was examined 30 minutes thereafter.
# [3] = system: cisplatin-treated dogs; assay: Antiemetic effect in cisplatin-treated dogs; type: in vivo; conditions: 0.1 × 2 mg/kg i.v., 30 minutes before and 2 hours after cisplatin 3 mg/kg i.v.; observed over 6 hours; control 13.5
# Experimental: Each of test dogs (2 animals per group) after 16 hours of fasting was fed with 200 g of a solid food, and cisplatin was administered to the animal 30 minutes thereafter by intravenous injection with a dose of 3 mg/kg. The test compound was dissolved in distilled water for injection and was administered by intravenous injection 30 minutes before and 2 hours after the cisplatin administration, and frequency and duration of emesis were observed over 6 hours.
# [4] = 10^-7 M, read-out: Binding inhibitory ratio of [^3 H]-GR65630 at 10^-7 M
# [5] = read-out: Binding inhibitory ratio of [^3 H]-GR65630 at 10^-7 M, 10^-7 M
smiles,measurement,setting,value
"CN1CCN(c2nc3ccccc3o2)CC1 [Example 1, 2-(4-Methyl-1-piperazinyl)benzoxazole]",inhibition at 0.1 µM,[1]; [4],89.4%
same,Inhibitory ratio (bradycardia induced by 5-HT),[2]; 3 mg/kg i.p.,76%
"C[N+]1(C)CCN(c2nc3ccccc3o2)CC1 [Example 2, 1,1-Dimethyl-4-(benzoxazol-2-yl)piperazinium iodide]",inhibition at 0.1 µM,[1]; [5],45.5%
"C=CC[N+]1(C)CCN(c2nc3ccccc3o2)CC1.[I-] [Example 3, 1-Allyl-1-methyl-4-(benzoxazol-2-yl)piperazinium iodide]",inhibition at 0.1 µM,[1]; [4],52.8%
same,Inhibitory ratio (bradycardia induced by 5-HT),[2]; 0.3 mg/kg i.p.,82%
same,Frequency of emesis,[3],0 times
"C=CC[N+]1(C)CCN(c2nc3ccccc3o2)CC1 [Example 4, 1-Allyl-1-methyl-4-(benzoxazol-2-yl)piperazinium chloride]",inhibition at 0.1 µM,[1]; [5],48%
"C[N+]1(CCO)CCN(c2nc3ccccc3o2)CC1.[I-] [Example 5, 1-(2-Hydroxyethyl)-1-methyl-4-(benzoxazol-2-yl)piperazinium iodide]",inhibition at 0.1 µM,[1]; [4],78%
same,Inhibitory ratio (bradycardia induced by 5-HT),[2]; 0.3 mg/kg i.p.,61%
"CN1CCCN(c2nc3ccccc3o2)CC1 [Example 13, 2-(4-Methyl-1-homopiperazinyl)benzoxazole]",inhibition at 0.1 µM,[1]; [4],97.3%
"C[N+]1(C)CCCN(c2nc3ccccc3o2)CC1 [Example 14, 1,1-Dimethyl-4-(benzoxazol-2-yl)homopiperazinium iodide]",inhibition at 0.1 µM,[1]; [4],44.4%
"C[N+]1(CCO)CCCN(c2nc3ccccc3o2)CC1 (centres unmarked) [Example 16, 1-(2-Hydroxyethyl)-1-methyl-4-(benzoxazol-2-yl)homo-piperazinium iodide]",inhibition at 0.1 µM,[1]; [4],46%
"OCCN1CCCN(c2nc3ccccc3o2)CC1 [Example 19, 2-[4-(2-Hydroxyethyl)-1-homopiperazinyl]benzoxazole]",inhibition at 0.1 µM,[1]; [4],54.3%
"C=CC[N+]1(C)CCN(c2nc3ccc(O)cc3o2)CC1 [Example 22, 1-Allyl-1-1-methyl-4-(6-hydroxybenzoxazol-2-yl)piperazinium iodide]",inhibition at 0.1 µM,[1]; [4],51.6%
